Like-named read-outs stand apart in the source and are kept apart here.
Tests used:
[1] = target: T1, US28 receptor (Human cytomegalovirus, UniProt P69332); test: PathDetect trans Elk1 luciferase reporter gene assay in US28-transfected 293T HEK cells; format: cell-based, Human Cytomegalovirus (HCMV); settings: for EC50: 293T HEK cells transiently expressing US28, Elk1 reporter; for type of activity on the US28 receptor (agonist / inverse agonist / none), in words: Elk1 reporter, US28-transfected HEK cells; for Emax: read-out: Efficacy(%), maximum intrinsic activity from dose-response curve
T1 construct: expressed in transfected cells; host or cells: HEK 293T cells, transiently transfected
Text: Having generated a homologous series of chalcones and flavones, their ability to interact with the US28 receptor in human embryonic kidney (HEK) cells was investigated using an Elk-1 gene reporter assay (FIG. 2). HEK cells were transfected with either an empty vector (i.e., mock cells) or with a vector carrying US 28. These matched HEK cells provided a means to evaluate off-target effects as well as innate drug toxicity. As many of the flavonoid drugs were not water-soluble, all drug stock solutions were made in 100% dimethylsulfoxide (DMSO). The final DMSO concentration for each cell-based experiment, however, was 1% DMSO. To account for the presence of DMSO, 1% DMSO controls were run in parallel. […] values of the homologous series were also determined in Chinese hamster ovary (CHO) cells in order to assess the relative toxicities of each member of the series in a different cell line (see Table 1).
Interaction with the US28 receptor was measured by a decrease in luminescence using a firefly (Photinus pyralis) luciferase-based PathDetect Elk1 gene reporter assay (FIG. 2).^23,24 This assay assessed the modulation of US28-mediated activation of mitogen-activated protein kinase (MAPK) signaling pathways (results are shown in Table 1). […] Such compounds which reduce MAPK signaling will have direct utility in the treatment of proliferative disorders including but not limited cancer.
After transfection the US28 is expressed and activates MAPK. The MAPK phosphorylates the activator domain of the GAL4dbd/Elk1 fusion protein, and causes its dimerization. The dimer then binds to the GAL4 UAS region of the reporter gene and allows for luciferase transcription. The luciferase mRNA is then translated and the luciferase protein is detected via luminescence by the use of the Bright-Glo reagent.
The efficacy of each compound on the US28 receptor was investigated in luciferase based reporter gene assay PathDetect trans Elk1 (Agilent, Stratagene)^23 as described previously.^13 Briefly, the human embryonic kidney (HEK) 293T cells were transiently-transfected with 0.1 μg Elk1, 5 μg Luc, and 5 μg of US28 vector or empty pcDNA3 vector (mock cells). Five hours after transfection, the cells were washed with DMEM containing 1% FBS, harvested, seeded in a white half-area 96-well plate (20,000 cells/well) and incubated with the indicated concentrations of test compounds. The incubation buffer consisted of DMEM, 1% FBS, 2 mM L-glutamine, 1% penicillin-streptomycin and 1% DMSO. The cells were incubated at 37° C. in the humid atmosphere with 5% CO2 for an additional 20-24 hours. The luciferase substrate BrightGlo (Promega) was used according to the manufacturer's instruction. The luminescence intensity was acquired using microplate reader Victor3V (Perkin-Elmer). The basal luminescence of mock transfected cells was approximately 500 RLU and the basal luminescence of US28-transfected cells was 4-5-fold higher (2000-2500 RLU). As the inhibitors gave differential responses in terms of their ability to reduce US 28 mediated signaling, their relative EC50 values were determined by dosing the US-28 transfected HEK cells with increasing concentrations of each compound. In this case, the EC50 value is the concentration of the compound needed to provoke a response halfway between the compound's maximal response (change in luminescence) and the no-compound control in the same US-28 transfected cell line. A plot of relative luminescence versus log of the compound concentration provided a dose-response curve from which the % efficacy was derived via non-linear regression methods using the algorithms in PRISM 5.0 (GraphPad Software, San Diego, Calif.).

[2] = system: CHO cells; test: CHO cell toxicity, MTS assay, 48 h; format: cell-based, Chinese hamster; settings: Cricetulus griseus, CHO, 37° C., MTS reagent, read-out: CHO 48 h IC50 value
Experimental: In each case, the chalcone system 8 was more toxic than the corresponding ring-closed system, 9.
The CHO assay was conducted to assess the general toxicity of each flavonoid drug. Briefly, cell growth was assayed in sterile 96-well microtiter plates (Costar 3599, Corning, N.Y., USA) in the presence of each drug. Experiments were conducted in triplicate. CHO cells were plated at 10,000 cells/mL. Drug solutions were prepared in 100% DMSO and dosed so that the final DMSO concentration was <1%. For example, 1 μL of drug solution was added to the CHO cells plated in each well in 100 μL of media. Drug additions occurred after an initial overnight incubation of CHO cells in each well. After drug was added, the cells were incubated in 5% CO2 for 48 h at 37° C. The MTS reagent (Promega Cell Titer 96 Aqueous non-radioactive cell proliferation reagent) was added (20 μL) and the CHO cells were incubated for an additional 4h and then absorbance at 490 nm was measured on a BioTek Synergy MX plate reader. […] IC50 values were determined from the corresponding plot of relative absorbance at 490 nm vs drug concentration.

[3] = TZMbI assay for cell safety (cell viability and growth, CytoTox Glo); settings: human, TZMbI cells, read-out: % decrease in viability compared to 0.1% DMSO vehicle based on viable cell luminescence
Experimental: Assays were performed below in accordance with the procedures set forth in The Journal of Immunology, 2006, 176, pp. 6900-905; AIDS Research and Human Retroviruses, 2004, 20:11, pp. 1157-1665.^32,33 TZMbI assays for cell safety were performed to identify potential anti-viral compounds. TZMbI assays for cell safety were performed to identify potential anti-viral compounds per the methods.

[4] = system: HIV-1 BaL; test: Anti-HIV assay (luciferase, HIV-1 BaL infection); format: cell-based
Experimental: Assays were performed below in accordance with the procedures set forth in The Journal of Immunology, 2006, 176, pp. 6900-905; AIDS Research and Human Retroviruses, 2004, 20:11, pp. 1157-1665.^32,33 Cells were treated with 2 ng/mL p24 of HIV-1 BaL administered; MOI approx 0.02 (see refs 32, 33). Cells were treated with 2 ng/mL p24 of HIV-1 BaL administered; MOI approx 0.02 (see refs 32, 33).

[5] = EC50 (μM), NE = no effect when tested at 10 μM of compound
[6] = 10 μM, Experiment 1B, 2 ng/mL p24 HIV-1 BaL
[7] = Human immunodeficiency virus 1, BAL, 2.5 μM, Experiment 2B
[8] = Human immunodeficiency virus 1, BAL, 5 μM, Experiment 2B
[9] = Human immunodeficiency virus 1, BAL, 10 μM, Experiment 1B, 2 ng/mL p24 HIV-1 BaL
[10] = Human immunodeficiency virus 1, BAL, 10 μM, Experiment 2B
[11] = Human immunodeficiency virus 1, BAL, 20 μM, Experiment 2B
[12] = Human immunodeficiency virus 1, BAL, 40 μM, Experiment 2B

T1 sequence (P69332 whole entry): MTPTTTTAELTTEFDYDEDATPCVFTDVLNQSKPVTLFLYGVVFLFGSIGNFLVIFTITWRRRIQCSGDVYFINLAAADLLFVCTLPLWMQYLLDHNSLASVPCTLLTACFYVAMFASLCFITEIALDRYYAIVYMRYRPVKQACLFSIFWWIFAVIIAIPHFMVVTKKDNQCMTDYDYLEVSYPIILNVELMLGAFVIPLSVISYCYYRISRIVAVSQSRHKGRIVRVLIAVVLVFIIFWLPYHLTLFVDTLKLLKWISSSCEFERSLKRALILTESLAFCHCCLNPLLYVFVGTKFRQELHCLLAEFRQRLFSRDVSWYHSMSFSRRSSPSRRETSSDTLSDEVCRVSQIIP

Structure (SMILES)	EC50 [1, 5]	type of activity on the US28 receptor (agonist / inverse agonist / none), in words [1]	EC50 ([1]; pEC50 ± SEM)	IC50 [2]	cytotoxicity at 2.5 μM ([3]; Experiment 2A)	cytotoxicity at 5 μM ([3]; Experiment 2A)	cytotoxicity at 10 μM ([3]; Experiment 1A)	cytotoxicity at 10 μM ([3]; Experiment 2A)	cytotoxicity at 20 μM ([3]; Experiment 2A)	cytotoxicity at 40 μM ([3]; Experiment 2A)	melting point	RLU (relative luciferase units) ([4]; 2.5 μM, Experiment 2B)	RLU (relative luciferase units) ([4]; 5 μM, Experiment 2B)	RLU (relative luciferase units) [4, 6]	RLU (relative luciferase units) ([4]; 10 μM, Experiment 2B)	RLU (relative luciferase units) ([4]; 20 μM, Experiment 2B)	inhibition at 5 µM [4, 8]	inhibition at 10 µM [4, 9]	inhibition at 10 µM [4, 10]	inhibition at 20 µM [4, 11]	further results
CCOc1ccc(Br)cc1-c1oc2ccccc2c(=O)c1O [Compound 9c, 2-(5-Bromo-2-ethoxyphenyl)-3-hydroxy-4H-chromen-4-one]	0.8 µM	inhibited US28 activity	0.832 µM	13.5 ± 1.3 µM	-6.23%	-0.19%	-8.9%	0.1%	14.8%	64.2%	149 to 155 °C	30.81 RLU	33.63 RLU	727.6 RLU	49.29 RLU	69.09 RLU	-0.19%	22.3%	0.1%	14.8%	RLU (relative luciferase units) ([4]; 40 μM, Experiment 2B): 88.45 RLU; inhibition at 2.5 µM [4, 7]: -6.23%; inhibition at 40 µM [4, 12]: 64.2%
COc1cc(Br)cc(-c2oc3ccccc3c(=O)c2O)c1OC [Compound 9d, 2-(5-Bromo-2,3-dimethoxyphenyl)-3-hydroxy-4H-chromen-4-one]	–	–	–	> 100 µM	–	-7.87%	-7.3%	-18.6%	-23.7%	-33.1%	153 to 158 °C	–	10.04 RLU	452.5 RLU	25.14 RLU	41.25 RLU	-7.87%	51.7%	-18.6%	-23.7%	EC50 ([1]; NE = no effect when tested at 10 μM of compound): > 10 µM; cytotoxicity at 80 μM ([3]; 80 μM, Experiment 2A): -8.38%; RLU (relative luciferase units) ([4]; 40 μM, Experiment 2B): 68.82 RLU; RLU (relative luciferase units) ([4]; 80 μM, Experiment 2B): 59.85 RLU; inhibition at 40 µM [4, 12]: -33.1%; inhibition at 80 µM ([4]; Human immunodeficiency virus 1, BAL, 80 μM, Experiment 2B): -8.38%
CCOc1ccc(Cl)cc1-c1oc2ccccc2c(=O)c1O [Compound 9i, 2-(5-chloro-2-ethoxyphenyl)-3-hydroxy-4H-chromen-4-one]	–	inhibited US28 activity	0.309 µM	> 100 µM	6.19%	10.7%	21.8%	18.7%	21.6%	–	156 to 159 °C	238.44 RLU	204.06 RLU	361.0 RLU	159.94 RLU	81.12 RLU	26.1%	61.4%	41.5%	74.6%	Emax ([1]; negative = inverse agonism): -41%; cytotoxicity at 1.25 μM ([3]; 1.25 μM, Experiment 2A): 10.8%; RLU (relative luciferase units) ([4]; 1.25 μM, Experiment 2B): 254.23 RLU; inhibition at 1.25 µM ([4]; Human immunodeficiency virus 1, BAL, 1.25 μM, Experiment 2B): 2.53%; inhibition at 2.5 µM [4, 7]: 8.25%
COc1ccc(Br)cc1-c1cc(=O)c2ccccc2o1 [Compound 11d, 2-(5-Bromo-2-methoxyphenyl)-4H-chromen-4-one]	8.1 µM	inverse agonism	–	> 100 µM	–	–	23.6%	–	–	–	161 to 164 °C	–	–	576.3 RLU	–	–	–	38.4%	–	–	Efficacy(%) ([1]; maximum intrinsic activity from dose-response curve, negative = inverse agonism): −55%; Emax ([1]; negative = inverse agonism): -55%
